Reference: PubChem BioAssay AID2060342 (Molecular Pharmacology Branch, DTP, NCI, 2025)
Where “and” joins values, the source holds several entries; their conditions need not be identical. Equal entries are not always repeated.

System: 171881-019-R-J1-PDC multicell spheroid viability
Experiment: Anticancer human tumor 171881-019-R-J1-PDC patient-derived invasive breast carcinoma cell line growth inhibition [IpAb]
Details: for viability, T/C: stronger effect = lower value
From the text: Combinatorial screen of targeted agents with ipatasertib and abemaciclib in multi-cell type tumor spheroids
A high-throughput screen of multi-cell type tumor spheroids was designed to identify active combinations of targeted small molecules and ipatasertib or abemaciclib. Complex spheroids include a stromal component modeled by human endothelial cells (HUVEC) and fibroblasts modeled by human mesenchymal stem cells (MSCs). The concentration ranges selected for each drug and investigational agent were based upon clinically achievable concentrations if the clinical Cmax of the agent was known.
Compounds. The drugs and investigational agents: ipatasertib (NSC767898), abemaciclib(NSC768073), selumetinib (NSC741078), trametinib (758246), adavosertib (NSC754352), everolimus (NSC733504), sapanisertib (NSC764658), vemurafenib (NSC761431), venetoclax (NSC766270), copanlisib (NSC809693), apelisib (NSC765974), palbociblib (NSC758247), vemurafenib (NSC761431), dabrafenib (NSC764134), ravoxertinib (NSC781343), BMS-387032 (NSC767048), sotorasib (NSC818433), talazoparib (NSC767125) and afursertib (NSC778305), were obtained from the National Cancer Institute (NCI) Developmental Therapeutics Program Chemical Repository. The FDA-approved anticancer drug set is available from the NCI Developmental Therapeutics Program. […] The stock solutions were prepared in dimethyl sulfoxide (DMSO, Sigma-Aldrich, St. Louis, MO, cat. D2650) at 800-fold the tested concentration and stored at -70 degrees C prior to their use. All drugs and investigational agents were tested over a range starting from a high concentration at or near the clinical Cmax and decreasing in half-log increments. If the clinical Cmax for an agent had not been determined, the highest concentration tested was 10 microM.
NCI60 Cell Culture. NCI60 cell lines were obtained from the NCI Developmental Therapeutics Program Tumor Repository. For each lot of cells, the Repository performed Applied Biosystems AmpFLSTR Identifiler testing with PCR amplification to confirm consistency with the published Identifier STR profile for each cell line. Cells were kept in continuous culture for no more than 20 passages. The optimal seeding densities for each of the cell lines at each time point assessed were determined prior to performing the concentration response studies. Briefly, the NCI60 human tumor lines were grown as monolayers in RPMI 1640 medium supplemented with 10% FBS and 2 mmol/L L-glutamine.
An additional 9 lines were from the NCI60 cell line panel including MDA-MB-231 breast carcinoma, MDA-MB-468 breast carcinoma, MCF7 breast carcinoma, Hs578T breast carcinoma, MALME-3M melanoma, SK-MEL-2 melanoma, SK-OV-3 ovarian carcinoma, DU-145 prostate carcinoma, PC-3 prostate carcinoma, all cell lines along with major genetic alterations are listed on Table 2. Pooled donor human umbilical vein endothelial cells (HUVEC, Lonza, cat. CC-2519) and human mesenchymal stem cells (hMSC, Lonza, cat. PT-2501) were purchased from Lonza (Walkersville, MD).
PDMR cell lines were grown in complete medium (DC medium): Dulbecco's modified Eagle's medium (DMEM)/F12 supplemented with 5% fetal bovine serum (FBS), 2 mM L-glutamine, 100 U/mL penicillin and 100 µg/ml streptomycin, 0.4 µg/ml hydrocortisone, 10 ng/ml epidermal growth factor (EGF) recombinant human protein, 24 µg/mL adenine, and 0.1 mg/mL primocin. During culture from frozen stock vials, PDMR cells were cultured in the same medium containing 10 µM Y-27632 (see Table 3). The PDCs were cultured in complete DMEM/F12 media without 10 microM Y-27632 dihydrochloride for at least two passages prior to the screen. The pooled donor HUVEC and hMSC were cultured in endothelial cell growth medium 2 (PromoCell, Heidelberg, Germany, cat. C-22011) and mesenchymal stem cell growth medium 2 (PromoCell, cat. C-28009), respectively. For all experiments, HUVEC and hMSC were used at passages </=5.
[…]
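Note: spheroids exposed to the agents for seven days before readout.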

Which results are given for `Cc1nc(NC(=O)N2CCCC2C(N)=O)sc1-c1ccnc(C(C)(C)C(F)(F)F)c1` (stereo not given)?
viability, T/C (compound 0.0316 µM): 117% and 108%; viability, T/C (compound 0.1 µM): 128% and 98.1%; viability, T/C (compound 0.316 µM): 84.2% and 67.8%; viability, T/C (compound 1 µM): 36.8% and 38.8%; viability, T/C (compound 3.16 µM): 16.5% and 12.6%; viability, T/C (compound 10 µM): 2.78% and 1.93%; IC50 (curve of compound): 734 nM and 640 nM

For `Cn1cnc2c(F)c(Nc3ccc(Br)cc3Cl)c(C(=O)NOCCO)cc21`, which viability, T/C (compound 0.00949 µM) is on record?
Its viability, T/C is 113% and 108%.

And the viability, T/C (compound 0.03 µM)?
The viability, T/C was 106% and 96.2%.

What about the viability, T/C (compound 0.0949 µM) of the same molecule?
Its viability, T/C is 124% and 98%.

What about the viability, T/C (compound 0.3 µM) of the same molecule?
Its viability, T/C is 117% and 99.3%.

What about the viability, T/C (compound 0.949 µM) of the same molecule?
Its viability, T/C is 70.1% and 49.4%.

And the viability, T/C (compound 3 µM)?
The viability, T/C was 18.2% and 11.6%.

What about the IC50 (curve of compound) of the same molecule?
The IC50 was 1480 nM and 935 nM.

Which results are given for `Cn1ncc(Cl)c1-c1cc(C(=O)NC(CN)Cc2cccc(F)c2)sc1Cl` (stereo not given)?
viability, T/C (compound 0.0316 µM): 107% and 112%; viability, T/C (compound 0.1 µM): 64.8% and 67.2%; viability, T/C (compound 0.316 µM): 29.7% and 27.4%; viability, T/C (compound 1 µM): 11.8% and 13.5%; viability, T/C (compound 3.16 µM): 3.57% and 3.17%; viability, T/C (compound 10 µM): 0.84% and 0.66%; IC50 (curve of compound): 163 nM and 167 nM

Which results are given for `Cn1nccc1Nc1nccc(-c2ccn(C(CO)c3ccc(Cl)c(F)c3)c(=O)c2)n1` (stereo not given)?
viability, T/C (compound 0.0316 µM): 107% and 117%; viability, T/C (compound 0.1 µM): 108% and 112%; viability, T/C (compound 0.316 µM): 77.1% and 79%; viability, T/C (compound 1 µM): 39.2% and 41.8%; viability, T/C (compound 3.16 µM): 22.2% and 22.1%; viability, T/C (compound 10 µM): 19.1% and 18.8%; IC50 (curve of compound): 713 nM and 761 nM

What does the source list for `Cn1ncnc1[C@H]1c2n[nH]c(=O)c3cc(F)cc(c23)N[C@@H]1c1ccc(F)cc1`?
viability, T/C (compound 0.000316 µM): 100% and 93.4%; viability, T/C (compound 0.001 µM): 111% and 93.9%; viability, T/C (compound 0.00316 µM): 116%; viability, T/C (compound 0.01 µM): 108% and 101%; viability, T/C (compound 0.0316 µM): 109% and 111%; viability, T/C (compound 0.1 µM): 128% and 123%; IC50 (curve of compound): > 100 nM

How did the IC50 (curve of first compound, second compound 0.1 µM) turn out when `Cn1cnc2c(F)c(Nc3ccc(Br)cc3Cl)c(C(=O)NOCCO)cc21` + CC(C)NCC(C(=O)N1CCN(c2ncnc3c2C(C)CC3O)CC1)c1ccc(Cl)cc1 was run?
The IC50 was 540 nM.

And the IC50 (curve of first compound, second compound 0.316 µM)?
Its IC50 is 188 nM.

What about the IC50 (curve of first compound, second compound 1 µM) of the same molecule?
Its IC50 is less than 9.49 nM.

What about the IC50 (curve of first compound, second compound 3.16 µM) of the same molecule?
The IC50 was less than 9.49 nM.

And the IC50 (curve of first compound, second compound 10 µM)?
The IC50 was less than 9.49 nM.

What about the viability, T/C (second compound 0.1 µM, first compound 0.00949 µM) of the same molecule?
The viability, T/C was 122%.

What about the viability, T/C (second compound 0.1 µM, first compound 0.03 µM) of the same molecule?
Its viability, T/C is 125%.

What about the viability, T/C (second compound 0.1 µM, first compound 0.0949 µM) of the same molecule?
Its viability, T/C is 107%.

What about the viability, T/C (second compound 0.1 µM, first compound 0.3 µM) of the same molecule?
The viability, T/C was 75.1%.

And the viability, T/C (second compound 0.1 µM, first compound 0.949 µM)?
Its viability, T/C is 26.3%.

And the viability, T/C (second compound 0.1 µM, first compound 3 µM)?
The viability, T/C was 8.66%.

And the viability, T/C (second compound 0.316 µM, first compound 0.00949 µM)?
The viability, T/C was 72.7%.

And the viability, T/C (second compound 0.316 µM, first compound 0.03 µM)?
Its viability, T/C is 69.6%.

And the viability, T/C (second compound 0.316 µM, first compound 0.0949 µM)?
Its viability, T/C is 62.4%.

And the viability, T/C (second compound 0.316 µM, first compound 0.3 µM)?
Its viability, T/C is 41.9%.

And the viability, T/C (second compound 0.316 µM, first compound 0.949 µM)?
The viability, T/C was 14.2%.

And the viability, T/C (second compound 0.316 µM, first compound 3 µM)?
Its viability, T/C is 4.26%.

What about the viability, T/C (second compound 1 µM, first compound 0.00949 µM) of the same molecule?
The viability, T/C was 24.5%.

And the viability, T/C (second compound 1 µM, first compound 0.03 µM)?
The viability, T/C was 26.6%.

And the viability, T/C (second compound 1 µM, first compound 0.0949 µM)?
Its viability, T/C is 21.2%.

And the viability, T/C (second compound 1 µM, first compound 0.3 µM)?
Its viability, T/C is 13.3%.

What about the viability, T/C (second compound 1 µM, first compound 0.949 µM) of the same molecule?
Its viability, T/C is 4.61%.

And the viability, T/C (second compound 1 µM, first compound 3 µM)?
The viability, T/C was 1.63%.

What about the viability, T/C (second compound 3.16 µM, first compound 0.00949 µM) of the same molecule?
Its viability, T/C is 8.87%.

And the viability, T/C (second compound 3.16 µM, first compound 0.03 µM)?
The viability, T/C was 7.75%.

And the viability, T/C (second compound 3.16 µM, first compound 0.0949 µM)?
Its viability, T/C is 5.99%.

What about the viability, T/C (second compound 3.16 µM, first compound 0.3 µM) of the same molecule?
The viability, T/C was 5.01%.

And the viability, T/C (second compound 3.16 µM, first compound 0.949 µM)?
The viability, T/C was 1.73%.

What about the viability, T/C (second compound 3.16 µM, first compound 3 µM) of the same molecule?
Its viability, T/C is 0.77%.

And the viability, T/C (second compound 10 µM, first compound 0.00949 µM)?
Its viability, T/C is 5.26%.

And the viability, T/C (second compound 10 µM, first compound 0.03 µM)?
Its viability, T/C is 3.72%.

And the viability, T/C (second compound 10 µM, first compound 0.0949 µM)?
The viability, T/C was 3.22%.

What about the viability, T/C (second compound 10 µM, first compound 0.3 µM) of the same molecule?
The viability, T/C was 1.9%.

What about the viability, T/C (second compound 10 µM, first compound 0.949 µM) of the same molecule?
Its viability, T/C is 1.16%.

And the viability, T/C (second compound 10 µM, first compound 3 µM)?
The viability, T/C was 0.44%.
